From ChEMBL document CHEMBL4428125, “8-Substituted 1,3-dimethyltetrahydropyrazino[2,1-f]purinediones: Water-soluble adenosine receptor antagonists and monoamine oxidase B inhibitors” (Bioorg Med Chem, 2016)
≈ marks a conversion by molar mass, not a printed value.

Key:
Adenosine receptor A1 [1] = target: T1, Adenosine receptor A1 (Homo sapiens, UniProt P30542); experiment: Displacement of [3H]CCPA from human A1 receptor expressed in CHO cell membrane by liquid scintillation counting method; assay type: cell membranes
T1 sequence (P30542 whole entry): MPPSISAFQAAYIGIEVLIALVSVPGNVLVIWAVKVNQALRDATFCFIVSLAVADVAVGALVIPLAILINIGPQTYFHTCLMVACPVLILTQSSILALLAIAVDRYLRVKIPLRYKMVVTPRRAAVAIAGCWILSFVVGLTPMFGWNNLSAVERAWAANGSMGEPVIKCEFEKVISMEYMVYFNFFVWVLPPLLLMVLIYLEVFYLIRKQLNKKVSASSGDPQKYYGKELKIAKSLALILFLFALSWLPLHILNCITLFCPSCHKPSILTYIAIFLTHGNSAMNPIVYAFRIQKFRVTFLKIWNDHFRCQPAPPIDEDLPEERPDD

Adenosine receptor A1 [2] = target: T2, Adenosine receptor A1 (Rattus norvegicus, UniProt P25099); experiment: Displacement of [3H]CCPA from A1 receptor in rat brain cortex membranes by liquid scintillation counting method; assay type: cell membranes
T2 sequence (P25099 whole entry): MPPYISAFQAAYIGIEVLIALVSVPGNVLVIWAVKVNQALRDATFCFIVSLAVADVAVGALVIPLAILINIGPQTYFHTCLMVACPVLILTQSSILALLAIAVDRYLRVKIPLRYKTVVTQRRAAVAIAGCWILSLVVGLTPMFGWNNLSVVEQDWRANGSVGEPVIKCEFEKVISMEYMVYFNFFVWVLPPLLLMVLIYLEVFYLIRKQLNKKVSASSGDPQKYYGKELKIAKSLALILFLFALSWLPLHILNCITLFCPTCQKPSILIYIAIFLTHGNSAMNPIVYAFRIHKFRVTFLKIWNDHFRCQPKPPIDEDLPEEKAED

[3] = target: T3, Adenosine receptor A1 (Rattus norvegicus) (UniProt P25099); experiment: Displacement of [3H]CCPA from A1 receptor in rat brain cortex membranes at 1.5 uM by liquid scintillation counting method; assay type: cell membranes
T3 sequence (whole entry): T2 sequence (P25099 whole entry)

Adenosine receptor A2a [4] = target: Adenosine receptor A2a (Rattus norvegicus, UniProt P30543); experiment: Displacement of [3H]MSX from A2A receptor in rat brain striatum membranes measured after 30 mins by liquid scintillation counting method; assay type: cell membranes
Adenosine receptor A2a [5] = target: Adenosine receptor A2a (Homo sapiens, UniProt P29274); experiment: Displacement of [3H]MSX from human A2A receptor measured after 30 mins by liquid scintillation counting method
[6] = target: T4, Amine oxidase [flavin-containing] A (Homo sapiens, UniProt P21397); experiment: Inhibition of recombinant human MAO-A expressed in baculovirus infected BTI insect cells preincubated for 30 mins followed by addition of p-tyramine as substrate measured over 45 mins by Amplex Red MAO assay
T4 sequence (P21397 whole entry): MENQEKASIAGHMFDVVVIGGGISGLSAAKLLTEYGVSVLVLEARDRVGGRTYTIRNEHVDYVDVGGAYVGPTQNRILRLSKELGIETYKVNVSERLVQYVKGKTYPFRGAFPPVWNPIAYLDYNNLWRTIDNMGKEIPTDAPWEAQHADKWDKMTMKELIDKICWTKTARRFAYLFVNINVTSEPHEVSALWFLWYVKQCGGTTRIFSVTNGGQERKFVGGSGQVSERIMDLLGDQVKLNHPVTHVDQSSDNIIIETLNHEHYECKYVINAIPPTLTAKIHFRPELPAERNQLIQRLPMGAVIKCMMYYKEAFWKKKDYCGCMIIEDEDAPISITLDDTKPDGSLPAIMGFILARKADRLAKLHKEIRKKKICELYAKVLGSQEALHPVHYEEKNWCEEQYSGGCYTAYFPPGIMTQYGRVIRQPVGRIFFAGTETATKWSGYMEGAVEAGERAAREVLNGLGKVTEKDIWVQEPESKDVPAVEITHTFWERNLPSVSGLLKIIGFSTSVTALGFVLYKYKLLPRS

[7] = target: T4, Amine oxidase [flavin-containing] A; experiment: Inhibition of recombinant human MAO-A expressed in baculovirus infected BTI insect cells at 10 uM preincubated for 30 mins followed by addition of p-tyramine as substrate measured over 45 mins by Amplex Red MAO assay relative to control; conditions: 0.75 h
[8] = target: T5, Amine oxidase [flavin-containing] B (Homo sapiens, UniProt P27338); experiment: Inhibition of recombinant human MAO-B expressed in baculovirus infected BTI insect cells preincubated for 30 mins followed by addition of p-tyramine as substrate measured over 45 mins by Amplex Red MAO assay
T5 sequence (P27338 whole entry): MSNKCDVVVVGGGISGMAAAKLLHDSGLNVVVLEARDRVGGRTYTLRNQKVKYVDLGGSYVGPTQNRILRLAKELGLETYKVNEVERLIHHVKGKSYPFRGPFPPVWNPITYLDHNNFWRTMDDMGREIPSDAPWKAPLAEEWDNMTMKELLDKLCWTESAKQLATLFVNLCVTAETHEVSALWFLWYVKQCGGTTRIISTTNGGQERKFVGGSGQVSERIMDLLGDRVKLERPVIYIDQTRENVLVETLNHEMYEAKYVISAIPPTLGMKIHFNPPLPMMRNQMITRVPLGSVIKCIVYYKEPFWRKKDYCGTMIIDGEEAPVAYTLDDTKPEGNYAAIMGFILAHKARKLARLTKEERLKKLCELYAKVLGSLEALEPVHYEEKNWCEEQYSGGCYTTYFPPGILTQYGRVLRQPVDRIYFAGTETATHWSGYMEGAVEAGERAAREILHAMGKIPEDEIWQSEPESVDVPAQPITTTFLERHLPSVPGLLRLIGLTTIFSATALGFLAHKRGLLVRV

[9] = target: T5, Amine oxidase [flavin-containing] B; experiment: Inhibition of recombinant human MAO-B expressed in baculovirus infected BTI insect cells at 10 uM preincubated for 30 mins followed by addition of p-tyramine as substrate measured over 45 mins by Amplex Red MAO assay relative to control; conditions: 0.75 h
Adenosine receptor A2b = target: T6, Adenosine receptor A2b (Homo sapiens, UniProt P29275); experiment: Displacement of [3H]PSB-603 from human A2B receptor expressed in CHO cell membrane; assay type: cell membranes
T6 sequence (P29275 whole entry): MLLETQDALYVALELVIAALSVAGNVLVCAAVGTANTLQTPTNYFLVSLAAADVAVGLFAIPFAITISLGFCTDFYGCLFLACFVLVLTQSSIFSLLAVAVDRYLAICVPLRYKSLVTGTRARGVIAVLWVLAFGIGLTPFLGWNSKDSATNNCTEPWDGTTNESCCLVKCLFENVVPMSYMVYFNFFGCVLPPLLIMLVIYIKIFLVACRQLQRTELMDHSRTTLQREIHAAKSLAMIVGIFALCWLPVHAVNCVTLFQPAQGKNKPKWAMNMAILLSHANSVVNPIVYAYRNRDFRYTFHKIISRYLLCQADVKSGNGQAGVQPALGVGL

[10] = target: T7, Adenosine receptor A2b (Homo sapiens) (UniProt P29275); experiment: Displacement of [3H]PSB-603 from human A2B receptor expressed in CHO cell membrane at 1 uM relative to control; assay type: cell membranes
T7 sequence (whole entry): T6 sequence (P29275 whole entry)

Adenosine receptor A3 = target: T8, Adenosine receptor A3 (Homo sapiens, UniProt P0DMS8); experiment: Displacement of [3H]PSB-11 from human A3 receptor expressed in CHO cell membrane by liquid scintillation counting method relative to control; assay type: cell membranes
T8 sequence (P0DMS8 whole entry): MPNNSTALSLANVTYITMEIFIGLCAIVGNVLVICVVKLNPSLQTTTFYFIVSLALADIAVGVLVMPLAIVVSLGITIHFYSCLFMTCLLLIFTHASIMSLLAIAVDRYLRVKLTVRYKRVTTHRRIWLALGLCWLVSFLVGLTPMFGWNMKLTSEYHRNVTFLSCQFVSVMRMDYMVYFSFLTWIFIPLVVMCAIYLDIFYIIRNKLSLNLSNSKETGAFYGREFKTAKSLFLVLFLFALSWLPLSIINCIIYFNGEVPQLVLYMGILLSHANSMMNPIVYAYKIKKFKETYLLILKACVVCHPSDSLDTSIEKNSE

[11] = target: T9, Adenosine receptor A3 (Homo sapiens) (UniProt P0DMS8); experiment: Displacement of [3H]PSB-11 from human A3 receptor expressed in CHO cell membrane at 10 uM by liquid scintillation counting method relative to control relative to control; assay type: cell membranes
T9 sequence (whole entry): T8 sequence (P0DMS8 whole entry)

[12] = Thermodynamic solubility of the compound at pH 1; assay type: physicochemical; conditions: buffer, read-out: Therm_solubility
[13] = Thermodynamic solubility of the compound at pH 4; assay type: physicochemical; conditions: buffer, read-out: Therm_solubility
[14] = Thermodynamic solubility of the compound at pH 7.4; assay type: physicochemical; conditions: buffer, read-out: Therm_solubility
[15] = target: T7, Adenosine receptor A2b (Homo sapiens); experiment: Displacement of [3H]PSB-603 from human A2B receptor expressed in CHO cell membrane at 0.3 uM relative to control; assay type: cell membranes
[16] = target: Adenosine receptor A2a (Rattus norvegicus) (UniProt P30543); experiment: Displacement of [3H]MSX from A2A receptor in rat brain striatum membranes at 1 uM measured after 30 mins by liquid scintillation counting method relative to control; assay type: cell membranes
[17] = target: T9, Adenosine receptor A3 (Homo sapiens); experiment: Displacement of [3H]PSB-11 from human A3 receptor expressed in CHO cell membrane at 3 uM by liquid scintillation counting method relative to control relative to control; assay type: cell membranes

Chain of Adenosine receptor A2a (Rattus norvegicus, UniProt P30543) (P30543 whole entry): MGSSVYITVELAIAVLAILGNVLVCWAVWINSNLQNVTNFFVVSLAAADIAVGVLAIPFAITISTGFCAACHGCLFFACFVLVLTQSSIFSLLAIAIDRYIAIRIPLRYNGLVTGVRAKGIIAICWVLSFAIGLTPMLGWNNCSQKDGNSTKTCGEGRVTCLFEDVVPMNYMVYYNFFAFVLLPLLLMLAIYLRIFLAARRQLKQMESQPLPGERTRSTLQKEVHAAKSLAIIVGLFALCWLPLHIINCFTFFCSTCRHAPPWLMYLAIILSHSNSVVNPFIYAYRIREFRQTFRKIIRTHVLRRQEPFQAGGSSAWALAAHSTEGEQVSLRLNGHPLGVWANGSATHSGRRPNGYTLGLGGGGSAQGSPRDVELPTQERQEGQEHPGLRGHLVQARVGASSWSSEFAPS
Chain of Adenosine receptor A2a (Homo sapiens, UniProt P29274) (P29274 whole entry): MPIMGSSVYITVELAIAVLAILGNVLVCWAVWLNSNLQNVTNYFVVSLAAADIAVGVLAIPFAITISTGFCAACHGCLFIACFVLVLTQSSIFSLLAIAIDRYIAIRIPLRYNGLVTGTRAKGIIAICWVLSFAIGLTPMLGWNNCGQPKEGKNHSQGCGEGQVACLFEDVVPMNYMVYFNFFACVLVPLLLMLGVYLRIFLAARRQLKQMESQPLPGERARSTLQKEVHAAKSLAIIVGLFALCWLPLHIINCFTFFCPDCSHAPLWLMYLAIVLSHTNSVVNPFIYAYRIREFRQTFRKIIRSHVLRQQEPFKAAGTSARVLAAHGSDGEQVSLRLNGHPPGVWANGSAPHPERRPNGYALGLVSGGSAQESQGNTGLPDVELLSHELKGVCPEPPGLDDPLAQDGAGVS
Chain of Adenosine receptor A2a (Rattus norvegicus) (P30543 whole entry): as the sequence (P30543 whole entry) above

Ki (Adenosine receptor A1 [1])	Ki (Adenosine receptor A1 [2])	Activity [3]	Ki (Adenosine receptor A2a [4])	Ki (Adenosine receptor A2a [5])	IC50 [6]	inhibition at 10 µM [7]	IC50 [8]	inhibition at 10 µM [9]	Ki (Adenosine receptor A2b)	Activity [10]	Ki (Adenosine receptor A3)	Activity [11]	solubility thermodynamic [12]	solubility thermodynamic [13]	solubility thermodynamic [14]	Activity [15]	Activity [16]	Activity [17]	SMILES
3880 nM	> 1500 nM	17%	450 nM	512 nM	> 10000 nM	16%	> 10000 nM	26%	> 1000 nM	19%	> 10000 nM	35%	100 µg/mL (≈ 231 µM)	< 0.5 µg/mL	< 0.5 µg/mL				Cn1c(=O)c2c(nc3n2CCN(CCCc2cccc(Br)c2)C3)n(C)c1=O
492 nM	76 nM		62 nM	346 nM	> 10000 nM	3%		47%	> 1000 nM	17%	> 10000 nM	43%			< 0.5 µg/mL				Cn1c(=O)c2c(nc3n2CCN(Cc2csc(-c4ccc(Cl)cc4)n2)C3)n(C)c1=O
	> 1500 nM	26%	2120 nM				3650 nM		> 300 nM		> 10000 nM	42%	700 µg/mL (≈ 1670 µM)	< 0.5 µg/mL	< 0.5 µg/mL	29%			Cn1c(=O)c2c(nc3n2CCN(CCc2cccc(Br)c2)C3)n(C)c1=O
	> 1500 nM	32%	4210 nM				2130 nM		> 300 nM		> 10000 nM	45%	1000 µg/mL (≈ 2850 µM)	1 µg/mL (≈ 2.85 µM)	< 0.5 µg/mL	10%			Cn1c(=O)c2c(nc3n2CCN(C2CCc4ccccc42)C3)n(C)c1=O (racemic)
	> 1500 nM	-1%	> 1000 nM		> 10000 nM	11%	> 10000 nM	16%	> 300 nM		> 10000 nM	32%	1100 µg/mL (≈ 3100 µM)	60 µg/mL (≈ 169 µM)	20 µg/mL (≈ 56.3 µM)	4%	24%		Cn1c(=O)c2c(nc3n2CCN(CCOc2ccccc2)C3)n(C)c1=O
	> 1500 nM	5%	6170 nM				> 10000 nM	24%	> 1000 nM	12%	> 3000 nM		300 µg/mL (≈ 782 µM)	1 µg/mL (≈ 2.61 µM)	< 0.5 µg/mL			9%	Cn1c(=O)c2c(nc3n2CCN(CCc2ccc4c(c2)OCO4)C3)n(C)c1=O
